Data taken from ChEMBL document CHEMBL1909046, “DrugMatrix in vitro pharmacology data”.

Columns and labels:
[1] = molecular target: Beta-3 adrenergic receptor (Homo sapiens, UniProt P13945); experiment: DRUGMATRIX: Adrenergic beta3 radioligand binding (ligand: [125I] Cyanopindolol); type: cell membranes, HEK293, Membrane; details: hek293; Not Active = under 50% inhibition at 10 µM
[2] = molecular target: Sodium-dependent noradrenaline transporter (Homo sapiens, UniProt P23975); experiment: DRUGMATRIX: Norepinephrine Transporter radioligand binding (ligand: [125I] RTI-55); type: cell membranes, MDCK, Membrane; details: mdck; Not Active = under 50% inhibition at 10 µM
Substance-K receptor = molecular target: T1, Substance-K receptor (Homo sapiens, UniProt P21452); type: cell membranes, CHO, Membrane; details: cho; also: in other assays of this panel Not Active means under 50% inhibition at 10 µM
T1 sequence (P21452 whole entry): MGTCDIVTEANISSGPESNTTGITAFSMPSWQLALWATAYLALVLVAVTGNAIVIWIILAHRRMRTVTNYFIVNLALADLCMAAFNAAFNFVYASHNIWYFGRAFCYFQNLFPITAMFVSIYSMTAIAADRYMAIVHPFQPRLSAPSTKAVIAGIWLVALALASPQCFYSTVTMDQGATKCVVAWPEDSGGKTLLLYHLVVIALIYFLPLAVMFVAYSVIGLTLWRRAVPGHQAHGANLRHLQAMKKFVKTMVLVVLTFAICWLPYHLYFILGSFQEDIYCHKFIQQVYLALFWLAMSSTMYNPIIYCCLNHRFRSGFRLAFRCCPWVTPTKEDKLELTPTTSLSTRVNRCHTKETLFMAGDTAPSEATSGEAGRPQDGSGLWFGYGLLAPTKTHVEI

[3] = molecular target: Vascular endothelial growth factor receptor 1 (Homo sapiens, UniProt P17948); experiment: biochemical; type: cell-based, HUVEC; details: huvec; also: in other assays of this panel Not Active means under 50% inhibition at 10 µM
[4] = molecular target: T2, Receptor-type tyrosine-protein phosphatase C (Homo sapiens, UniProt P08575); design: species or system Escherichia coli;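 also: inhibition of CD45 enzyme activity measured using DiFMUP as substrate; in other assays of this panel Not Active means under 50% inhibition at 10 µM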
T2 sequence (P08575 whole entry): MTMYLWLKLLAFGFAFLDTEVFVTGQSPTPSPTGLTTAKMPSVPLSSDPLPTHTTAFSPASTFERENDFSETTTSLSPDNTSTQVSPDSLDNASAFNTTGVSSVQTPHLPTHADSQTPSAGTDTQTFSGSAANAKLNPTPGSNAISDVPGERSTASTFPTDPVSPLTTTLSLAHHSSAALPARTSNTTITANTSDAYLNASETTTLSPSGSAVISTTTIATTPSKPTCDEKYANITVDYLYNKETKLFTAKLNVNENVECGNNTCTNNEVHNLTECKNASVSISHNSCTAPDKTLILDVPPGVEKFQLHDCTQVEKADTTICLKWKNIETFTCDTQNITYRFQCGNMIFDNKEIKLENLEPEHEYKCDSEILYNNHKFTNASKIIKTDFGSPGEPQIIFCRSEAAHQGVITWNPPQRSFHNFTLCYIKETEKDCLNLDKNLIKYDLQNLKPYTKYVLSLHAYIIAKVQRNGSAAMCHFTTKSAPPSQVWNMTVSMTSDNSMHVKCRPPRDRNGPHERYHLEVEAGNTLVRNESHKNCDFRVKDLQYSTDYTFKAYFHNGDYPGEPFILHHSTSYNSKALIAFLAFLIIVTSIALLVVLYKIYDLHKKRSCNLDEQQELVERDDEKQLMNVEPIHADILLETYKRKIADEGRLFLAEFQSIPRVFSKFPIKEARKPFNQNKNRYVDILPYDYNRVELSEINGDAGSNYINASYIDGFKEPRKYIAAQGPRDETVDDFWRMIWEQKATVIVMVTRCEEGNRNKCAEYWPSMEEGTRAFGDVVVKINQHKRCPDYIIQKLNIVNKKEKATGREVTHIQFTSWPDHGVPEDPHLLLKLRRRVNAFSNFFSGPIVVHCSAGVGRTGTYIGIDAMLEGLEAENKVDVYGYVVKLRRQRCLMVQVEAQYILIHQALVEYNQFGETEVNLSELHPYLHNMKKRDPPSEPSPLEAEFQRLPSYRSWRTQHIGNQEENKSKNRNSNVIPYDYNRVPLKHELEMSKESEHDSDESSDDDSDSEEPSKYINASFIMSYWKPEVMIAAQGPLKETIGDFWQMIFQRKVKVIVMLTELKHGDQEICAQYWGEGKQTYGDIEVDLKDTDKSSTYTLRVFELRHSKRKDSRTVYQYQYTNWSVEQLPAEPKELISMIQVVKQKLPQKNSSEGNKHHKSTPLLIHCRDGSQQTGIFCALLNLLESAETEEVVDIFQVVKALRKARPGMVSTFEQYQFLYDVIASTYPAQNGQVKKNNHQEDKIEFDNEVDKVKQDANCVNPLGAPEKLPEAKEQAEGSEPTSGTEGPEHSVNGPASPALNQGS

Cytochrome P450 3A4 = Cytochrome P450 3A4 (Homo sapiens, UniProt P08684); details: bti-tn-5b1-4; also: in other assays of this panel Not Active means under 50% inhibition at 10 µM
Chain of Cytochrome P450 3A4 (P08684 whole entry): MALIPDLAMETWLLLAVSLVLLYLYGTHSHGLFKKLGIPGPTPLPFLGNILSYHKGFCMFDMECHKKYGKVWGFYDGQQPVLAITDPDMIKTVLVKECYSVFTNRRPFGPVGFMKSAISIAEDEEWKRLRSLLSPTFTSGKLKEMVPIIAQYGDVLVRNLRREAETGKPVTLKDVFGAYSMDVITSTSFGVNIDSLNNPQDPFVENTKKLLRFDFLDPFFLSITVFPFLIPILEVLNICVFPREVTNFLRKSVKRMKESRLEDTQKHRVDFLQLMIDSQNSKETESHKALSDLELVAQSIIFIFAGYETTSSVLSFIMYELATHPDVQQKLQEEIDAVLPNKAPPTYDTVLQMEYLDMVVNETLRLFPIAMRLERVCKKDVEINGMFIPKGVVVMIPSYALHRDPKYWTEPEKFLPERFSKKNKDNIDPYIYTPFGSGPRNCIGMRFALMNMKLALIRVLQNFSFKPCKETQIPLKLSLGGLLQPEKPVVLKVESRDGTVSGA

Chain of Beta-3 adrenergic receptor (P13945 whole entry): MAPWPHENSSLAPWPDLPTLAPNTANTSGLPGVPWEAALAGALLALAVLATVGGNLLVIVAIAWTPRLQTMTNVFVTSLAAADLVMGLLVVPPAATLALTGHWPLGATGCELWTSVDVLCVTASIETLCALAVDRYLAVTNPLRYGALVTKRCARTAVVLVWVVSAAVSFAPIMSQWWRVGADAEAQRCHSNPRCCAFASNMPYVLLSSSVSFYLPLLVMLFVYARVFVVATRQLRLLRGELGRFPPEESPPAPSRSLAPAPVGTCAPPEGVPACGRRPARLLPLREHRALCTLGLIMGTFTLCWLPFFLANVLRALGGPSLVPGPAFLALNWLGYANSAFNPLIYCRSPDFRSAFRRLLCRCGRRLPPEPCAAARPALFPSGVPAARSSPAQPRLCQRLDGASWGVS
Chain of Vascular endothelial growth factor receptor 1 (P17948 whole entry): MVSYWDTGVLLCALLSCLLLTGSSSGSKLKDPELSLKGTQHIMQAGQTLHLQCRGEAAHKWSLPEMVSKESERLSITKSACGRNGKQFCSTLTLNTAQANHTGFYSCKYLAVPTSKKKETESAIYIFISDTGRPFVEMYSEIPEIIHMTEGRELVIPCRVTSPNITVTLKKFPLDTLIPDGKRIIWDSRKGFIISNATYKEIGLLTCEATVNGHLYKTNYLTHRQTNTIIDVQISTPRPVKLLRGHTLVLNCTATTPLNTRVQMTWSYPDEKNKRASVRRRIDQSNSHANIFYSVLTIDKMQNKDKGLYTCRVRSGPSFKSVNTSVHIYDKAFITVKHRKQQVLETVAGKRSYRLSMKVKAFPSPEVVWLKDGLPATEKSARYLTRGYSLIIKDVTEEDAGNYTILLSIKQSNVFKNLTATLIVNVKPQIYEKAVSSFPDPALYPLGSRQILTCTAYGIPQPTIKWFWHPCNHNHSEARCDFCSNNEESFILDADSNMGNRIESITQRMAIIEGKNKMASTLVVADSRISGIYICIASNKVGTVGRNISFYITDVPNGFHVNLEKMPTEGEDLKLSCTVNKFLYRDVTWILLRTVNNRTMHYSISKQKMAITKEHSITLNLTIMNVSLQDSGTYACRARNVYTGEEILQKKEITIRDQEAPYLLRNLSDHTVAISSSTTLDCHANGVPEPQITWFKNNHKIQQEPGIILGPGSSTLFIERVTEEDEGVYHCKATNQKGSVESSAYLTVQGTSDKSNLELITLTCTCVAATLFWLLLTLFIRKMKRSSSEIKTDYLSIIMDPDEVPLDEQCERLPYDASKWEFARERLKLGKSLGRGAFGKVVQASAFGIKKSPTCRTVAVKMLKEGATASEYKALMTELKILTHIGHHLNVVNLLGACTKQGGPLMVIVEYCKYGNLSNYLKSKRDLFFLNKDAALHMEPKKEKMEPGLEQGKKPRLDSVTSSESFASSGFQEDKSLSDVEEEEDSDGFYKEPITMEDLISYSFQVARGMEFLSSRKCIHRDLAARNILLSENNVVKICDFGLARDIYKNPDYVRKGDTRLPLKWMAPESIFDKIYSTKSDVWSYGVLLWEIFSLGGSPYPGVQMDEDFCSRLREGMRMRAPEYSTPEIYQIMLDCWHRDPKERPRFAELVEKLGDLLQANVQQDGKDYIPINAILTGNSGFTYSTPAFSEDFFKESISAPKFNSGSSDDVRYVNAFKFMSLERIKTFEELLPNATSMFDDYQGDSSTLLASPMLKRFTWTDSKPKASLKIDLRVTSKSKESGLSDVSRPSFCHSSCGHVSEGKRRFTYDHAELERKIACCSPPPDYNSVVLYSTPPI
Chain of Sodium-dependent noradrenaline transporter (P23975 whole entry): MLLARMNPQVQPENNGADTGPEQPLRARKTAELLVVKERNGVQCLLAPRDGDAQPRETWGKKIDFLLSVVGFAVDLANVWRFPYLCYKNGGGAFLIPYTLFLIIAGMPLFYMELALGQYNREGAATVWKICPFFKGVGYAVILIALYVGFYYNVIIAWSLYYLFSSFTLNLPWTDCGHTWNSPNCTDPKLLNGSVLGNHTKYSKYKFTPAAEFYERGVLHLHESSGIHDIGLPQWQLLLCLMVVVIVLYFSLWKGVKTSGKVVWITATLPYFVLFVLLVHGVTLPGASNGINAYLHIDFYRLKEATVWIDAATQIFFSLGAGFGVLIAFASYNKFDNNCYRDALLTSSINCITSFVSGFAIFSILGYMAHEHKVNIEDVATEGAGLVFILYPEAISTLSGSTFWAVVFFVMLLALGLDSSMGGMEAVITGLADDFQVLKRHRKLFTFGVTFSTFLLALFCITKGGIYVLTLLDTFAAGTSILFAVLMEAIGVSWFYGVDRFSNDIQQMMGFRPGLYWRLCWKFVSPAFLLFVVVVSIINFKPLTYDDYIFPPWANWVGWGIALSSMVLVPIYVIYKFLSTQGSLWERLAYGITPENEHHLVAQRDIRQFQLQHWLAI

INSULIN HUMAN
Not Active: IC50 [1] | Ki [1] | IC50 [2] | Ki [2] | IC50 (Substance-K receptor) | Ki (Substance-K receptor) | IC50 [3] | Ki [3] | IC50 [4] | Ki [4] | IC50 (Cytochrome P450 3A4) | Ki (Cytochrome P450 3A4)

POLYVINYL ALCOHOL
Not Active: IC50 [1] | Ki [1] | IC50 [2] | Ki [2] | IC50 (Substance-K receptor) | Ki (Substance-K receptor) | IC50 [3] | Ki [3] | IC50 [4] | Ki [4] | IC50 (Cytochrome P450 3A4) | Ki (Cytochrome P450 3A4)
